Measurements: patent US20250381179A1, “CHROMAN-BASED COMPOUNDS FOR TREATING CANCER” (priority 2024, published 2025)

Test: Phase 1 study: safety and tolerability (TEAEs, NCI CTCAE v5.0)
Experimental: The study employed an open-label, 3+3 design, with the option of adding backfill patients to each cohort cleared and deemed safe. […] Tumor responses were assessed every 2 cycles using RECIST v1.1 criteria. […] The study also involves an ongoing dose escalation study where participants receive 100 mg, 200 mg, 300 mg, 400 mg, and 600 mg once daily (QD) dose levels.
Safety was assessed through the analysis of the reported incidence of treatment-emergent AEs. Treatment-emergent AEs are those with an onset on or after the initiation of therapy and will be graded according to NCI CTCAE Version 5.0. Other safety endpoints, including laboratory results, vital signs, and ECG findings, were summarized for all patients in the Safety set.

O=C1CC[C@H](N2Cc3cc(N4CCN(CC5CCN(c6ccc([C@@H]7c8ccc(O)cc8OC[C@@H]7c7ccccc7)cc6F)CC5)CC4)ccc3C2=O)C(=O)N1 [compound (1-g), (S)-3-(5-(4-((1-(2-fluoro-4-((3S,4R)-7-hydroxy-3-phenylchroman-4-yl)phenyl)piperidin-4-yl)methyl)piperazin-1-yl)-1-oxoisoindolin-2-yl)piperidine-2,6-dione]
related TEAE: Fatigue (100 mg QD (N = 4)): 0 n (%) | related TEAE: Flatulence (100 mg QD (N = 4)): 0 n (%) | related TEAE: Hot Flush (100 mg QD (N = 4)): 1 (25.0) n (%) | related TEAE: Hyperhidrosis (100 mg QD (N = 4)): 0 n (%) | related TEAE: Nail Disorder (100 mg QD (N = 4)): 0 n (%) | related TEAE: Nausea (100 mg QD (N = 4)): 1 (25.0) n (%) | related TEAE: Neutrophil Count Decreased (100 mg QD (N = 4)): 1 (25.0) n (%) | related TEAE: Platelet Count Decreased (100 mg QD (N = 4)): 0 n (%) | related TEAE: Tremor (100 mg QD (N = 4)): 1 (25.0) n (%) | related TEAE: Vomiting (100 mg QD (N = 4)): 0 n (%) | Patients with Any Compound (1-g) related TEAE (200 mg QD (N = 12)): 3 (25.0) n (%) | Patients with Any TEAE (200 mg QD (N = 12)): 11 (91.7) n (%) | TEAE: Abdominal Distension (200 mg QD (N = 12)): 0 n (%) | TEAE: Abdominal Pain (200 mg QD (N = 12)): 1 (8.3) n (%) | TEAE: Acute Kidney Injury (200 mg QD (N = 12)): 0 n (%) | TEAE: Adrenal Insufficiency (200 mg QD (N = 12)): 1 (8.3) n (%) | TEAE: Alopecia (200 mg QD (N = 12)): 0 n (%) | TEAE: Anaemia (200 mg QD (N = 12)): 1 (8.3) n (%) | TEAE: Anxiety (200 mg QD (N = 12)): 0 n (%) | TEAE: Arthralgia (200 mg QD (N = 12)): 2 (16.7) n (%) | TEAE: Axillary Vein Thrombosis (200 mg QD (N = 12)): 1 (8.3) n (%) | TEAE: Back Pain (200 mg QD (N = 12)): 1 (8.3) n (%) | TEAE: Basal Cell Carcinoma (200 mg QD (N = 12)): 0 n (%) | TEAE: Breast Pain (200 mg QD (N = 12)): 1 (8.3) n (%) | TEAE: Confusional State (200 mg QD (N = 12)): 0 n (%) | TEAE: Constipation (200 mg QD (N = 12)): 1 (8.3) n (%) | TEAE: Cough (200 mg QD (N = 12)): 1 (8.3) n (%) | TEAE: Covid-19 Pneumonia (200 mg QD (N = 12)): 0 n (%) | TEAE: Dehydration (200 mg QD (N = 12)): 1 (8.3) n (%) | TEAE: Diarrhoea (200 mg QD (N = 12)): 0 n (%) | TEAE: Dizziness (200 mg QD (N = 12)): 0 n (%) | TEAE: Dysgeusia (200 mg QD (N = 12)): 0 n (%) | TEAE: Dyspepsia (200 mg QD (N = 12)): 0 n (%) | TEAE: Dyspnoea (200 mg QD (N = 12)): 1 (8.3) n (%) | TEAE: Dysuria (200 mg QD (N = 12)): 1 (8.3) n (%) | TEAE: Eructation (200 mg QD (N = 12)): 0 n (%) | TEAE: Fall (200 mg QD (N = 12)): 1 (8.3) n (%) | TEAE: Fatigue (200 mg QD (N = 12)): 2 (16.7) n (%) | TEAE: Flatulence (200 mg QD (N = 12)): 0 n (%) | TEAE: Fracture (200 mg QD (N = 12)): 1 (8.3) n (%) | TEAE: Fungal Infection (200 mg QD (N = 12)): 0 n (%) | TEAE: Haematoma (200 mg QD (N = 12)): 0 n (%) | TEAE: Hot Flush (200 mg QD (N = 12)): 1 (8.3) n (%) | TEAE: Hyperglycaemia (200 mg QD (N = 12)): 1 (8.3) n (%) | TEAE: Hyperhidrosis (200 mg QD (N = 12)): 1 (8.3) n (%) | TEAE: Hypokalaemia (200 mg QD (N = 12)): 1 (8.3) n (%) | TEAE: Hypotension (200 mg QD (N = 12)): 0 n (%) | TEAE: Influenza Like Illness (200 mg QD (N = 12)): 1 (8.3) n (%) | TEAE: Insomnia (200 mg QD (N = 12)): 1 (8.3) n (%) | TEAE: Lower Respiratory Tract Congestion (200 mg QD (N = 12)): 1 (8.3) n (%) | TEAE: Lymphocyte Count Decreased (200 mg QD (N = 12)): 1 (8.3) n (%) | TEAE: Muscle Spasm (200 mg QD (N = 12)): 0 n (%) | TEAE: Muscular Weakness (200 mg QD (N = 12)): 1 (8.3) n (%) | TEAE: Musculoskeletal Stiffness (200 mg QD (N = 12)): 1 (8.3) n (%) | TEAE: Nail Disorder (200 mg QD (N = 12)): 0 n (%) | TEAE: Nasal Congestion (200 mg QD (N = 12)): 1 (8.3) n (%) | TEAE: Nausea (200 mg QD (N = 12)): 1 (8.3) n (%) | TEAE: Neutrophil Count Decreased (200 mg QD (N = 12)): 1 (8.3) n (%) | TEAE: Oedema Peripheral (200 mg QD (N = 12)): 0 n (%) | TEAE: Ophthalmic Migraine (200 mg QD (N = 12)): 1 (8.3) n (%) | TEAE: Oral Pain (200 mg QD (N = 12)): 0 n (%) | TEAE: Pain In Extremity (200 mg QD (N = 12)): 1 (8.3) n (%) | TEAE: Pharyngitis (200 mg QD (N = 12)): 1 (8.3) n (%) | TEAE: Platelet Count Decreased (200 mg QD (N = 12)): 0 n (%) | TEAE: Pleural Effusion (200 mg QD (N = 12)): 0 n (%) | TEAE: Pneumonia (200 mg QD (N = 12)): 1 (8.3) n (%) | TEAE: Productive Cough (200 mg QD (N = 12)): 1 (8.3) n (%) | TEAE: Rash Maculo-Papular (200 mg QD (N = 12)): 1 (8.3) n (%) | TEAE: Rhinitis Allergic (200 mg QD (N = 12)): 0 n (%) | TEAE: Rib Fracture (200 mg QD (N = 12)): 0 n (%) | TEAE: Seizure (200 mg QD (N = 12)): 1 (8.3) n (%) | TEAE: Sepsis (200 mg QD (N = 12)): 1 (8.3) n (%) | TEAE: Tremor (200 mg QD (N = 12)): 0 n (%) | TEAE: Upper Respiratory Tract Infection (200 mg QD (N = 12)): 1 (8.3) n (%)
